ChEMBL document CHEMBL5537135, “Novel antimicrobial peptides modified with fluorinated sulfono-γ-AA having high stability and targeting multidrug-resistant bacteria infections” (Eur J Med Chem, 2024)
≈ marks a conversion by molar mass, not a printed value. Calls of active or inactive are those of the source. The rule behind the calls is not given here. Numbered stars: 1 amine (or outer) side, 2 acyl side, 3 side chain; on linkers, the order of the positions; unused ones are H or OH. Square brackets hold non-standard residues; d marks the D form. Peptide text beside a SMILES is read from it. * marks the point of attachment. X4 = N[C@@H](Cc1ccccc1)CN(CC(=O)[*:2])[*:1]; X1 = O=S(=O)(c1ccc(C(F)(F)F)cc1)*

Columns and labels:
[1] = tested on: Pseudomonas aeruginosa; assay: Antimicrobial activity against Pseudomonas aeruginosa ATCC 27853 in presence of mouse serum; format: functional, organism-based
[2] = tested on: Acinetobacter baumannii; assay: Antimicrobial activity against Acinetobacter baumannii ATCC 19606 assessed as inhibition of visible bacterial growth incubated for 18 hrs by broth-dilution method; format: functional
[3] = tested on: Staphylococcus aureus; assay: Antimicrobial activity against methicillin-resistant Staphylococcus aureus ATCC 33591 in presence of mouse serum; format: functional, organism-based
[4] = tested on: Staphylococcus aureus; assay: Antimicrobial activity against methicillin-resistant Staphylococcus aureus ATCC 33591 assessed as inhibition of visible bacterial growth incubated for 18 hrs by broth-dilution method; format: functional
[5] = tested on: Erythrocyte; assay: Hemolytic activity against mouse Red blood cell incubated for 1 hr; format: toxicity, cell-based
[6] = tested on: Pseudomonas aeruginosa; assay: Antimicrobial activity against Pseudomonas aeruginosa ATCC 27853 assessed as inhibition of visible bacterial growth incubated for 18 hrs by broth-dilution method; format: functional
[7] = tested on: Salmonella typhimurium; assay: Antimicrobial activity against Salmonella typhimurium ATCC 14028 assessed as inhibition of visible bacterial growth incubated for 18 hrs by broth-dilution method; format: functional, Salmonella enterica subsp. enterica serovar Typhimurium
[8] = tested on: Pseudomonas aeruginosa; assay: Antimicrobial activity against multidrug-resistant Pseudomonas aeruginosa 124 assessed as inhibition of visible bacterial growth incubated for 18 hrs by broth-dilution method; format: functional
[9] = tested on: Pseudomonas aeruginosa; assay: Antimicrobial activity against multidrug-resistant Pseudomonas aeruginosa 119 assessed as inhibition of visible bacterial growth incubated for 18 hrs by broth-dilution method; format: functional
[10] = tested on: Pseudomonas aeruginosa; assay: Antimicrobial activity against multidrug-resistant Pseudomonas aeruginosa 157 assessed as inhibition of visible bacterial growth incubated for 18 hrs by broth-dilution method; format: functional
[11] = tested on: Pseudomonas aeruginosa; assay: Antimicrobial activity against multidrug-resistant Pseudomonas aeruginosa 156 assessed as inhibition of visible bacterial growth incubated for 18 hrs by broth-dilution method; format: functional
[12] = tested on: Pseudomonas aeruginosa; assay: Antimicrobial activity against multidrug-resistant Pseudomonas aeruginosa 085 assessed as inhibition of visible bacterial growth incubated for 18 hrs by broth-dilution method; format: functional
[13] = tested on: Staphylococcus aureus; assay: Antimicrobial activity against methicillin-resistant Staphylococcus aureus ATCC 33591 in presence of human serum; format: functional, organism-based
[14] = tested on: Escherichia coli; assay: Antimicrobial activity against Escherichia coli ATCC 25922 assessed as inhibition of visible bacterial growth incubated for 18 hrs by broth-dilution method; format: functional
[15] = tested on: Staphylococcus aureus; assay: Antimicrobial activity against methicillin-resistant Staphylococcus aureus 8 assessed as inhibition of visible bacterial growth incubated for 18 hrs by broth-dilution method; format: functional
[16] = tested on: Staphylococcus aureus; assay: Antimicrobial activity against methicillin-resistant Staphylococcus aureus 3 assessed as inhibition of visible bacterial growth incubated for 18 hrs by broth-dilution method; format: functional
[17] = tested on: Staphylococcus aureus; assay: Antimicrobial activity against methicillin-resistant Staphylococcus aureus 2 assessed as inhibition of visible bacterial growth incubated for 18 hrs by broth-dilution method; format: functional
[18] = tested on: Staphylococcus aureus; assay: Antimicrobial activity against methicillin-resistant Staphylococcus aureus 4 assessed as inhibition of visible bacterial growth incubated for 18 hrs by broth-dilution method; format: functional
[19] = tested on: Staphylococcus aureus; assay: Antimicrobial activity against methicillin-resistant Staphylococcus aureus 10 assessed as inhibition of visible bacterial growth incubated for 18 hrs by broth-dilution method; format: functional
[20] = tested on: Staphylococcus aureus; assay: Antimicrobial activity against methicillin-resistant Staphylococcus aureus 1 assessed as inhibition of visible bacterial growth incubated for 18 hrs by broth-dilution method; format: functional
[21] = tested on: Staphylococcus aureus; assay: Antimicrobial activity against Staphylococcus aureus ATCC 25923 in presence of mouse serum; format: functional, organism-based
[22] = tested on: Staphylococcus aureus; assay: Antimicrobial activity against methicillin-resistant Staphylococcus aureus 5 assessed as inhibition of visible bacterial growth incubated for 18 hrs by broth-dilution method; format: functional
[23] = tested on: Staphylococcus epidermidis; assay: Antimicrobial activity against Staphylococcus epidermidis ATCC 12228 assessed as inhibition of visible bacterial growth incubated for 18 hrs by broth-dilution method; format: functional
[24] = tested on: Staphylococcus aureus; assay: Antimicrobial activity against methicillin-resistant Staphylococcus aureus 6 assessed as inhibition of visible bacterial growth incubated for 18 hrs by broth-dilution method; format: functional
[25] = tested on: Pseudomonas aeruginosa; assay: Antimicrobial activity against Pseudomonas aeruginosa ATCC 27853 in presence of human serum; format: functional, organism-based
[26] = tested on: Staphylococcus aureus; assay: Antimicrobial activity against Staphylococcus aureus ATCC 25923 assessed as fold change in MIC in presence of salt solution; format: functional
[27] = tested on: Staphylococcus aureus; assay: Antimicrobial activity against Staphylococcus aureus ATCC 25923 in presence of human serum; format: functional, organism-based
[28] = tested on: Bacillus subtilis; assay: Antimicrobial activity against Bacillus subtilis ATCC 23857 assessed as inhibition of visible bacterial growth incubated for 18 hrs by broth-dilution method; format: functional
[29] = tested on: Pseudomonas aeruginosa; assay: Antimicrobial activity against multidrug-resistant Pseudomonas aeruginosa 073 assessed as inhibition of visible bacterial growth incubated for 18 hrs by broth-dilution method; format: functional
[30] = tested on: Pseudomonas aeruginosa; assay: Antimicrobial activity against multidrug-resistant Pseudomonas aeruginosa 125 assessed as inhibition of visible bacterial growth incubated for 18 hrs by broth-dilution method; format: functional
[31] = tested on: Staphylococcus aureus; assay: Antimicrobial activity against Staphylococcus aureus ATCC 25923 assessed as reduction in bacterial growth in presence of Ca2+; format: functional
[32] = tested on: Pseudomonas aeruginosa; assay: Antimicrobial activity against multidrug-resistant Pseudomonas aeruginosa 061 assessed as inhibition of visible bacterial growth incubated for 18 hrs by broth-dilution method; format: functional
[33] = tested on: Pseudomonas aeruginosa; assay: Antimicrobial activity against multidrug-resistant Pseudomonas aeruginosa 050 assessed as inhibition of visible bacterial growth incubated for 18 hrs by broth-dilution method; format: functional
[34] = tested on: Staphylococcus aureus; assay: Antimicrobial activity against Staphylococcus aureus ATCC 25923 assessed as inhibition of visible bacterial growth incubated for 18 hrs by broth-dilution method; format: functional
[35] = tested on: Staphylococcus aureus; assay: Antimicrobial activity against methicillin-resistant Staphylococcus aureus 7 assessed as inhibition of visible bacterial growth incubated for 18 hrs by broth-dilution method; format: functional
[36] = tested on: Staphylococcus aureus; assay: Antimicrobial activity against methicillin-resistant Staphylococcus aureus 9 assessed as inhibition of visible bacterial growth incubated for 18 hrs by broth-dilution method; format: functional
[37] = tested on: Pseudomonas aeruginosa; assay: Antimicrobial activity against multidrug-resistant Pseudomonas aeruginosa 516 assessed as inhibition of visible bacterial growth incubated for 18 hrs by broth-dilution method; format: functional
[38] = Stability in human serum assessed as half life measured for 5 hrs by RP-HPLC analysis; format: ADME, cell-free
[39] = tested on: Pseudomonas aeruginosa; assay: Antibacterial activity against Pseudomonas aeruginosa ATCC 27853 infected in C57BL/6 mouse pneumonia model assessed as log reduction in bacterial load in lung at 5 mg/kg, ip administered for 1 to 48 hrs and measured after 3 days; format: functional; conditions: time 1-120 hrs
[40] = tested on: Staphylococcus aureus; assay: Antibacterial activity against antibiotics-resistant Staphylococcus aureus ATCC 33591 assessed as reduction in microbial growth; format: functional
[41] = tested on: Pseudomonas aeruginosa; assay: Antibacterial activity against antibiotics-resistant Pseudomonas aeruginosa […] assessed as reduction in microbial growth; format: functional
[42] = tested on: Staphylococcus aureus; assay: Antibacterial activity against methicillin-resistant Staphylococcus aureus ATCC 33591 infected in full-thickness wound BALB/c mouse model assessed as reduction in inflammatory infiltration at 1 mg/kg, ip administered for 1 to 48 hrs and measured after 3 days; format: functional, organism-based; conditions: time 1-120 hrs
[43] = Toxicity in mouse assessed as sluggish behavior at 20 mg/kg, ip measured for 30 to 60 mins; format: organism-based; conditions: in vivo, time 30-60 min
[44] = tested on: Pseudomonas aeruginosa; assay: Bactericidal activity against Pseudomonas aeruginosa ATCC 27853 assessed as reduction in viable bacteria at 4 times MIC measured for 30 min by time-kill assay; format: functional, organism-based
[45] = tested on: Cell membrane; assay: Induction of membrane depolarization in Pseudomonas aeruginosa ATCC 27853 assessed as increase in fluorescence intensity at 4 times MIC by DiSC35 dye-based fluorescence assay; format: cell membranes
[46] = tested on: Pseudomonas aeruginosa; assay: Antibacterial activity against Pseudomonas aeruginosa ATCC 27853 infected in C57BL/6 mouse pneumonia model assessed as […] at 5 mg/kg, ip administered for 1 to 48 hrs and measured after 3 days by H and E staining based analysis; format: functional, organism-based; conditions: time 1-120 hrs
[47] = tested on: Cell membrane; assay: Induction of cytoplasmic membrane depolarization in methicillin-resistant Staphylococcus aureus ATCC 33591 assessed as increase in fluorescence intensity at 4 times MIC by DiSC35 dye-based fluorescence assay
[48] = tested on: Staphylococcus aureus; assay: Drug resistance, ratio of MIC for methicillin-resistant Staphylococcus aureus ATCC 33591 after 20 days exposure to MIC for methicillin-resistant Staphylococcus aureus ATCC 33591 during first exposure; format: functional, organism-based; conditions: time 20.0 day

Compound	MIC [2] [µg/mL]	MIC [4] [µg/mL]	MIC [6] [µg/mL]	MIC ([7]; Salmonella enterica) [µg/mL]	MIC [8] [µg/mL]	MIC [9] [µg/mL]	MIC [10] [µg/mL]	MIC [11] [µg/mL]	MIC [12] [µg/mL]	MIC [14] [µg/mL]	MIC [15] [µg/mL]	MIC [16] [µg/mL]	MIC [23] [µg/mL]	MIC [28] [µg/mL]	MIC [29] [µg/mL]	MIC [30] [µg/mL]	MIC [32] [µg/mL]	MIC [33] [µg/mL]	MIC [34] [µg/mL]	MIC [37] [µg/mL]	other results
CC(C)C[C@H](NC(=O)[C@H](CC(C)C)NC(=O)[C@H](CCCCN)NC(=O)[C@H](CCCCN)NC(=O)[C@H](CC(C)C)NC(=O)[C@H](C)NC(=O)[C@H](CCCCN)NC(=O)CN(C[C@@H](N)Cc1ccccc1)S(=O)(=O)c1ccc(C(F)(F)F)cc1)C(N)=O (X1-[X4]KALKKLL-NH2)	16 (≈ 13.2 µM)	8 (≈ 6.61 µM)	8 (≈ 6.61 µM)	16 (≈ 13.2 µM)	4 (≈ 3.3 µM)	4 (≈ 3.3 µM)	4 (≈ 3.3 µM)	16 (≈ 13.2 µM)	8 (≈ 6.61 µM)	16 (≈ 13.2 µM)	8 (≈ 6.61 µM)	8 (≈ 6.61 µM)	8 (≈ 6.61 µM)	4 (≈ 3.3 µM)	8 (≈ 6.61 µM)	8 (≈ 6.61 µM)	4 (≈ 3.3 µM)	8 (≈ 6.61 µM)	8 (≈ 6.61 µM)	8 (≈ 6.61 µM)	Activity [1]: inactive; Activity [3]: inactive; MHC [5]: 256 µg/mL; Activity [13]: Active; MIC [17]: 8 µg/mL (≈ 6.61 µM); MIC [18]: 8 µg/mL (≈ 6.61 µM); MIC [19]: 8 µg/mL (≈ 6.61 µM); MIC [20]: 4 µg/mL (≈ 3.3 µM); Activity [21]: inactive; MIC [22]: 8 µg/mL (≈ 6.61 µM); MIC [24]: 8 µg/mL (≈ 6.61 µM); Activity [25]: Active; fold change (FC) [26]: 0.25; Activity [27]: Active; MIC [31]: 32 µg/mL; MIC [35]: 8 µg/mL (≈ 6.61 µM); MIC [36]: 8 µg/mL (≈ 6.61 µM); half-life [38]: 3.93 h
CC(C)(O/N=C(\C(=O)N[C@@H]1C(=O)N2C(C(=O)[O-])=C(C[n+]3ccccc3)CS[C@H]12)c1csc(N)n1)C(=O)O [CEFTAZIDIME]	4 (≈ 7.32 µM)	258 (≈ 472 µM)	1 (≈ 1.83 µM)	256 (≈ 468 µM)	256 (≈ 468 µM)	1 (≈ 1.83 µM)	1 (≈ 1.83 µM)	256 (≈ 468 µM)	1 (≈ 1.83 µM)	1 (≈ 1.83 µM)			256 (≈ 468 µM)	8 (≈ 14.6 µM)	1 (≈ 1.83 µM)	2 (≈ 3.66 µM)	1 (≈ 1.83 µM)	1 (≈ 1.83 µM)	4 (≈ 7.32 µM)	1 (≈ 1.83 µM)	log(activity) [39]: 4.75; MIC [40]: 32 µg/mL; MIC [41]: 32 µg/mL
CN[C@H](CC(C)C)C(=O)N[C@H]1C(=O)N[C@@H](CC(N)=O)C(=O)N[C@H]2C(=O)N[C@H]3C(=O)N[C@H](C(=O)N[C@H](C(=O)O)c4cc(O)cc(O)c4-c4cc3ccc4O)[C@H](O)c3ccc(c(Cl)c3)Oc3cc2cc(c3O[C@@H]2O[C@H](CO)[C@@H](O)[C@H](O)[C@H]2O[C@H]2C[C@](C)(N)[C@H](O)[C@H](C)O2)Oc2ccc(cc2Cl)[C@H]1O [VANCOMYCIN]	32 (≈ 22.1 µM)		256 (≈ 177 µM)	128 (≈ 88.3 µM)						256 (≈ 177 µM)				1 (≈ 0.69 µM)							Activity [42]: Active
POLYMYXIN B [listing 1 of 2 here]																					Activity [43]: Toxic
POLYMYXIN B [listing 2 of 2 here]	4	16	1		1	1	1	256	1	1	16	8	8	8	1	1	1	1	8	1	Activity [44]: Active; MIC ([7]; Salmonella enterica subsp. enterica serovar Typhimurium): 2 µg/mL; Activity [45]: inactive; log(activity) [39]: 4.54; MIC [17]: 8 µg/mL; MIC [18]: 16 µg/mL; MIC [19]: 16 µg/mL; MIC [20]: 8 µg/mL; MIC [22]: 16 µg/mL; MIC [24]: 8 µg/mL; Activity [46]: inactive; MIC [35]: 16 µg/mL; MIC [36]: 16 µg/mL; Activity [47]: inactive; Ratio [48]: 8
